The text below walks through data of US20180193274A1, “COMPOSITIONS FOR ILEO-JEJUNAL DRUG DELIVERY” (Principia Biopharma Inc., priority 2014, published 2018).

SMILES strings stand for the structures. Like-named read-outs stand apart in the source and are kept apart here.

For data set [1] the following is noted: cited from earlier work.
The nature of data set [2]: Pharmacokinetic experiment comparing oral gavage, intra-duodenal and intra-jejunal dosing in rats. It is filed as in vivo, Wister-Hans rats. From the text: FIG. 1 depicts the results of a pharmacokinetic experiment comparing oral and intra-duodenal gavage dosing of (R)-2-(3-(4-amino-3-(2-fluoro-4-phenoxyphenyl)-1H-pyrazolo[3,4-d]pyrimidin-1-yl)piperidine-1-carbonyl)-4-methyl-4-(4-(oxetan-3-yl)piperazin-1-yl)pent-2-enenitrile having E/Z ratio of about 9:1. The area under the curve (AUC) and the Cmax are plotted.
(R)-2-(3-(4-amino-3-(2-fluoro-4-phenoxyphenyl)-1H-pyrazolo[3,4-d]pyrimidin-1-yl)piperidine-1-carbonyl)-4-methyl-4-(4-(oxetan-3-yl)piperazin-1-yl)pent-2-enenitrile was dosed in 10 mg/mL aqueous citrate solution at 20 mg/kg to Wister-Hans rats. Anhydrous citric acid (0.5 equivalents) was added to the free base of (R)-2-(3-(4-amino-3-(2-fluoro-4-phenoxyphenyl)-1H-pyrazolo[3,4-d]pyrimidin-1-yl)piperidine-1-carbonyl)-4-methyl-4-(4-(oxetan-3-yl)piperazin-1-yl)pent-2-enenitrile. The experiment was repeated 3 times each with 2 separate arms, and one oral gavage arm was included in each study. Intra-jejunal (IJ) and intra-duodenal dosing was done in cannulated rats. In the first study, there was a 40-fold increase in the AUC for the IJ-dosed group compared to the PO group, and the metabolite present in the IJ-group was reduced 10-fold.

Setting [3] is: 20 mg/kg, intra-duodenal vs oral, FIG. 1.
Where [4] appears, read: 20 mg/kg, intra-jejunal vs oral, FIG. 1.

In the case of `C=CC(=O)N1CCC[C@@H](n2nc(-c3ccc(Oc4ccccc4)cc3)c3c(N)ncnc32)C1` [ibrutinib, 1-[(3R)-3-[4-Amino-3-(4-phenoxyphenyl)-1H-pyrazolo[3,4-d]pyrimidin-1-yl]piperidin-1-yl]prop-2-en-1-one], the “bioavailability as determined by AUC” value in data set [1] (administered intraduodenally) was 100%; in data set [1] (direct oral administration), 21%.

Turning to `CC(C)(C=C(C#N)C(=O)N1CCC[C@@H](n2nc(-c3ccc(Oc4ccccc4)cc3F)c3c(N)ncnc32)C1)N1CCN(C2COC2)CC1` [(R)-2-(3-(4-amino-3-(2-fluoro-4-phenoxyphenyl)-1H-pyrazolo[3,4-d]pyrimidin-1-yl)piperidine-1-carbonyl)-4-methyl-4-(4-(oxetan-3-yl)piperazin-1-yl)pent-2-enenitrile], in data set [2] (setting [3]), the “AUC, ID dosing compared to PO dosing” value is “increased” and the “Cmax, ID dosing compared to PO dosing” value was “increased”. In addition, in data set [2] (setting [4]), the “AUC, IJ dosing compared to PO dosing” value was “substantially increased” and the “Cmax, IJ dosing compared to PO dosing” value is given as “substantially increased”. Also, the “increase in the AUC for the IJ-dosed group compared to the PO group” value in data set [2] (first study, 20 mg/kg in 10 mg/mL aqueous citrate solution, intra-jejunal vs oral gavage) was determined as 40 fold.
